Results reported in US5556853A, “Epoxysuccinic acid derivatives” (Takeda Chemical Industries, Ltd., priority 1993, dated 1996).
Where a name gives a salt, the structure may show the parent alone.

What was measured:
mice = test: Toxicity Study; format: in vivo; conditions: intraperitoneally or orally administered at 400 mg/kg
Protocol: TAN-1756A caused no death in mice when it was intraperitoneally or orally administered at 400 mg/kg.
TAN-1803 monohydrochloride caused no death in mice when it was intraperitoneally or orally administered at 400 mg/kg.

[1] = system: bone resorption as enhanced by PTH (parathyroid hormone) in femurs from female BALB/c mice; test: Determination of Bone Resorption Suppressive Activity (PTH-enhanced, calcium release from cultured femurs); format: cell-based; conditions: 168 h; test compound 10 μg/ml, PTH 1 μM, 7 days, mouse femurs
Protocol: Compounds (I), (XI) and (XXI) or salts thereof excellently suppress bone resorption. Their suppressive action against bone resorption as enhanced by PTH (parathyroid hormone) was determined by the method described below.
Femurs were aseptically isolated from female BALB/c mice at 8-10 weeks of age. After the bone marrow cavity was washed with a Ham F12 medium containing 10% (w/w) thermally inactivated fetal calf serum, 100 unit/ml penicillin G and 100 unit/ml streptomycin (hereinafter referred to as culture broth), each femur was added to 1 ml of the culture broth and precultured for 3 hours at 37° C. in the presence of 5% carbon dioxide and 95% air. Each bone was transferred to 1 ml of the culture broth supplemented with PTH (produced by Peptide Institute, Inc., final concentration 1 μM) and the test compound (final concentration 10 μg/ml) and cultured for 7 more days, after which the total calcium content in the culture broth was determined using Calcium E-Test Wako (produced by Wako Pure Chemical Industries). The bone resorption suppressive activity of the test compound was calculated using the following equation:
Bone resorption suppressive activity (%)=100×(Cp-Cs)/(Cp-Cc)
Cc: Total calcium content in the culture broth containing neither PTH nor test compound
Cp: Total calcium content in the culture broth containing PTH […]

[2] = biological target: T1, human recombinant cathepsin L (Homo sapiens, UniProt P07711); test: Determination of Cathepsin L Inhibitory Activity; format: biochemical; conditions: Z-Phe-Arg-7MCA substrate, pH 5.5, 37° C., 20 minutes, read-out: Inhibitory activity potency IC50 Cathepsin L (converted)
T1 construct: made in house; host or cells: mouse myeloma Sp2/0 cells transformed with pTBN-HCLneo (Sp-HCL26), secreted into the culture supernatant
T1 sequence (P07711 114-333): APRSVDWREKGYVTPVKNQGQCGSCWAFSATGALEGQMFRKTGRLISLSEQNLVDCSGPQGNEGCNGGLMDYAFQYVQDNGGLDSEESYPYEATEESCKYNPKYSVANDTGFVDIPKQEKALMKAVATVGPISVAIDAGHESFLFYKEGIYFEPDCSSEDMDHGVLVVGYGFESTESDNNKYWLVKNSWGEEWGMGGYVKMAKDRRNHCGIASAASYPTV
Protocol: To 75 μl of a reaction mixture containing 1 ng of human recombinant cathepsin L (as produced in Reference Examples 1 through 7 below), 2 μM dithiothreitol (hereinafter referred to as DTT), 1 mM ethylenediaminetetraacetate disodium salt, 0.1M sodium acetate buffer (pH 5.5) and various concentrations of sample, 25 μl of 20 μM benzyloxycarbonyl-L-phenylalanyl-L-arginine-4-methylcoumaryl-7-amide (hereinafter referred to as Z-Phe-Arg-7MCA, produced by Peptide Institute, Inc.) was added to initiate the reaction. After incubation at 37° C. for 20 minutes, 100 μl of a reaction stopper solution containing 100 mM sodium monochloroacetate was added. The amount of liberated 4-methyl-7-aminocoumarin was determined at an excitation wavelength of 365 nm and a fluorescence wavelength of 450 nm, using a fluorophotometer (FCA; produced by Baxter). The sample concentration required to cause 50% inhibition was expressed as the IC50 value, with the fluorescence value obtained from the same reaction in the absence of the sample taken as 100%.

cathepsin B = biological target: T2, cathepsin B (Homo sapiens, UniProt P07858); test: Determination of Cathepsin B Inhibitory Activity; format: biochemical; conditions: cathepsin B (Sigma), Z-Phe-Arg-7MCA substrate, pH 5.5, 37° C., 20 minutes; read-out: Inhibitory activity potency IC50 Cathepsin B (converted)
T2 construct: purchased Sigma
Protocol: To 75 μl of a reaction mixture containing 30 ng of cathepsin B (produced by Sigma), 2 μM DTT, 1 mM ethylenediaminetetraacetate disodium salt, 0.1M sodium acetate buffer (pH 5.5) and various concentrations of sample, 25 μl of 20 μM Z-Phe-Arg-7MCA was added to initiate the reaction. After reaction mixture incubation at 37° C. for 20 minutes, 100 μl of a reaction stopper solution containing 100 mM sodium monochloroacetate was added. The amount of liberated 4-methyl-7-aminocoumarin was determined at an excitation wavelength of 365 nm and a fluorescence wavelength of 450 nm, using a fluorophotometer. The sample concentration required to cause 50% inhibition was expressed as the IC50 value, with the fluorescence value obtained from the same reaction in the absence of the sample taken as 100%.

| IC50 [2] [nM] | IC50 (cathepsin B) [nM] | Compound | death in mice (mice) | activity at 10 µg/mL [1] [%] |
| --- | --- | --- | --- | --- |
|  |  | NCCCCNC(=O)[C@H](Cc1ccccc1)NC(=O)[C@H]1O[C@@H]1C(=O)O [Compound 1, N-{N-[(2S,3S)-3-trans-carboxyoxirane-2-carbonyl]-L-phenylalanyl}-1,4-diaminobutane] | no death | 150 |
| 4.93 | 59.2 | NCCCCCCCCNC(=O)[C@H](Cc1ccccc1)NC(=O)[C@H]1O[C@@H]1C(=O)O [Compound 23, N-(N-[(2S,3S)-3-trans-carboxyoxirane-2-carbonyl]-L-phenylalanyl}-1,8-diaminooctane] |  |  |
| 1.99 | 27.9 | O=C(NCCCCNC(=O)[C@H](Cc1ccccc1F)NC(=O)[C@H]1O[C@@H]1C(=O)O)OCc1ccccc1 [Compound 37] |  |  |
| 5.02 | 85.3 | O=C(O)[C@H]1O[C@@H]1C(=O)N[C@@H](Cc1ccc2ccccc2c1)C(=O)N1CCOCC1 [Compound 82, N-{N-[(2S,3S)-3-trans-carboxyoxirane-2-carbonyl]-3-(2-naphthyl)-L-alanyl}morpholine monosodium salt] |  |  |
|  |  | CC(C)C[C@H](NC(=O)[C@H]1O[C@@H]1C(=O)O)C(=O)N(CCCN)CCCCN [Compound 92, N-{N-[(2S,3S)-3-trans-carboxyoxirane-2-carbonyl]-L-leucyl}-N-(3-aminopropyl)-1,4-diaminobutane] | no death | 149 |
